# Data from patent US11298347B2, “Methods of diagnosing and treating Tourette syndrome” (THE CHILDREN'S HOSPITAL OF PHILADELPHIA, priority 2015, dated 2022).
# Columns and labels:
# [1] = open-label Phase Ib clinical trial of NFC-1 in adolescent ADHD subjects with a genetic alteration in an mGluR network gene; format: in vivo, human
# Description: An open-label Phase Ib clinical trial was conducted to investigate the safety, pharmacokinetics and efficacy of NFC-1 (fasoracetam monohydrate) in adolescent subjects between the ages of 12 and 17 previously diagnosed with ADHD who also had at least one genetic alteration in an mGluR network gene.
# The study included 30 ADHD subjects who were between ages 12 and 17, of any ancestry or race, of weight within the 5th to 95th percentile for their age, and otherwise judged to be in good medical health. […] Seventeen of the 30 subjects have a CNV in a tier 1 mGluR network gene, while 7 subjects have a CNV in a tier 2 gene and 6 in a tier 3 gene.
# Exclusion criteria comprised subjects suffering from a clinically significant illness, either mental or physical, that, in the investigator's opinion, might confound the results of the study or that might prevent them from completing the study, subjects that are pregnant or nursing, subjects that test positive for illicit drugs of that have a history of drug abuse, subjects that consume alcoholic beverages, or subjects for which the investigator is otherwise concerned regarding their compliance or suitability.
# NFC-1 capsules of either 50 mg or 200 mg comprising fasoracetam monohydrate as active ingredient and placebo capsules comprising microcellulose were used for the study. The design of the trial was a phone screening (1 day), enrollment phase (1 to 2 days), a wash-out phase for subjects currently on ADHD medications (1-14 days), pharmacokinetic (PK) assessment (2 days), followed by a dose-escalation phase (35 days) and a follow-up phone visit approximately four weeks after the last dose, for a maximum of 127 days. All ADHD medications were discontinued during the wash-out phase prior to the study. The wash-out period for stimulants was 2-3 days and that for atomoxetine or noradrenergic agonists was 10-12 days. No new ADHD medications were started during the study.
# A dose-escalation phase of the trial ran over a 5-week period, after the initial wash-out period and the PK and initial safety assessments. During week 1, all subjects were administered placebo capsules twice daily. After one week of placebo treatment, patients were started on 50 mg bid NFC-1 for 1 week. If safety and responsiveness data from prior dose level of fasoracetam indicated it was appropriate, subjects were then escalated to the next higher dose (100, 200, or 400 mg).
# Of the 30 trial subjects, 3 received a maximum dose of 100 mg, 9 received a maximum dose of 200 mg, and the remaining 18 received a maximum dose of 400 mg.
# [2] = cited from earlier work
# [3] = test system: group I and group II/III mGluRs; conditions: in vitro studies (Hirouchi 2000); cited from earlier work
# [4] = test system: adenylate cyclase activity; conditions: Oka 1997; cited from earlier work
# [5] = prior human studies; cited from earlier work
SMILES,OCD symptoms during therapy ([1]; all eight subjects with symptoms of OCD),dermatillomania symptoms ([1]; one subject with OCD and history of ear scratching),bleeding ulcer from ear scratching ([1]; one subject with OCD and history of ear scratching (dermatillomania)),"tics during therapy ([1]; two individuals with history of recurrent tics, 50-400 mg bid dose escalation)",safety and tolerability ([2]; Phase I-III clinical trials),"effects on psychiatric symptoms ([2]; Phase III data, cerebral infarct patients and adult dementia patients with cerebrovascular diseases)","efficacy in dementia ([2]; Phase III trials, dementia-related cognitive impairment)",stimulation of mGluRs [3],adenylate cyclase activity by stimulating group II and III mGluRs [4],adenylate cyclase activity through activation of group I mGluRs [4],half-life [5]
"O=C1CC[C@H](C(=O)N2CCCCC2)N1 [NFC-1, fasoracetam monohydrate]",improved,reduced,healed,did not demonstrate tics,generally safe and well tolerated,beneficial effects,did not show sufficient efficacy,,,,
"O=C1CC[C@H](C(=O)N2CCCCC2)N1 [Fasoracetam, fasoracetam]",,,,,,,,can stimulate both group I and group II/III mGluRs,may also inhibit adenylate cyclase activity,may stimulate adenylate cyclase activity,5 to 6.5 h
